Results taken from US20260217701A1, “SELECTIVE BET INHIBITORS AND USES THEREOF” (Tay Therapeutics Limited, priority 2022, published 2026).
Marks after values point to notes of the source that are not given here. Values belong to the molecule of their own block, whether it stands above or below them.

Legend:
BRD4 BD2 = biological target: T1, BRD4 BD2 (Homo sapiens, UniProt O60885); test: NanoBRET bromodomain assay, NanoLuc-BRD4-BD2 in HEK293 cells; format: binding; settings: for Fold Selectivity BRD4 BD1/BD2: IC50 BD1/IC50 BD2, qualitative if an IC50 is at the upper limit
T1 construct: HEK293 cells were transfected using NanoLuc-BRD4-BD1 or NanoLuc-BRD4-BD2 fusion vectors
Procedure: (§1) Plates were then incubated at 37° C.+5% CO2 incubator for 2 hours.
(§2) Fold Selectivity Calculated (IC50 BD1/IC50 BD2).

BRD4 BD1 = biological target: T2, BRD4 BD1 (Homo sapiens, UniProt O60885); test: NanoBRET bromodomain assay, NanoLuc-BRD4-BD1 in HEK293 cells; format: binding
T2 construct: HEK293 cells were transfected using NanoLuc-BRD4-BD1 or NanoLuc-BRD4-BD2 fusion vectors
Procedure: Exemplary compounds of the disclosure are active against BRD4 BD2 and selective over BRD4 BD1. BRD4 is a representative example of the BET family, as the binding sites of all BET family members are structurally similar. […] IC50s and fold selectivity's are determined as described below and are represented in Table 1.
as §1, §2

[1] = test system: experimental autoimmune encephalomyelitis; test: Experimental autoimmune encephalomyelitis (EAE) model: EAE scores, onset, incidence; format: in vivo, C57BI/6 mice; settings: FTY720 (Group 5)
Procedure: (§3) Experimental Method H: EAE in animals treated with a BET inhibitor and vehicle. Animals were assigned to the groups outlined in Table 38.
(§4) Compound A may be formulated as illustrated in Experimental Method A (see Table 2E.). A 40 mg/mL stock solution of Compound A in DMSO was prepared and aliquots stored at −20° C. On each day of preparation an e.g., 0.75 mL aliquot of thawed stock was diluted with an equal volume of DMSO. The remaining vehicle components were added to provide the highest dose and then diluted with vehicle to provide lower doses. A 30 mg/mL stock solution of FTY720 in ethanol was prepared and stored at −20° C. Daily, the stock solution was diluted with room temperature water to a final dosing concentration of 0.6 mg/mL. Formulated Compound A, FTY720 and vehicle were each at room temperature for dosing.
(§5) Female C57BI/6 mice (9 weeks old) were acclimated for seven days prior to study initiation. On Day-1, animals were assigned to groups in a balanced manner to achieve similar average weights across the different groups. Chronic EAE was induced in female C57BI/6 mice following immunization with an emulsion of MOG35-55/CFA on Day 0, followed by an injection of pertussis toxin two hours after the initial immunization. On Day 1, a second injection of pertussis toxin was administered 24 hours after the initial immunization. Mice were injected subcutaneously at two sites on the back with the MOG35-55/CFA emulsion (Hooke Kit™ MOG35-55/CFA Emulsion PTX). The first injection site was located approximately 1 cm caudal of the neckline (upper back), and the second injection site was approximately 2 cm cranial of the base of the tail (lower back). The injection volume was 0.1 mL for each injection. The pertussis toxin was administered at the described times through intraperitoneal injection at a concentration of 85 ng/dose for both injections.
(§6) Body weight was measured three times a week (Monday, Wednesday, and Friday) starting on Day-1. Animals were scored daily for EAE starting on Day 7. In-between scores were assigned when the clinical signs fell between two below defined scores.

EAE study: body weight = format: in vivo, C57BI/6 mice; settings: for Mean Body Weight / Mean Body Weight (% of Day −1): FTY720 (Group 5)
Procedure: as §3, §4, §5, §6

SMILES: Cc1cccc(C)c1Oc1cn(C)c(=O)cc1-c1cn(C)c(=O)c2[nH]c(-c3ccc(OC(F)F)cc3F)cc12 [Example 97]
- IC50 (BRD4 BD2): 0.01 to 0.05 µM
- Fold Selectivity BRD4 BD1/BD2 (BRD4 BD2): xxx (Fold >200 and ≤1000)
- IC50 (BRD4 BD1): > 1 µM

SMILES: CSCc1cccc(-c2cn(C)c(=O)cc2-c2cn(C)c(=O)c3[nH]c(-c4cnn(C(F)(F)F)c4)cc23)c1 [Example 25, 6-methyl-4-(1-methyl-5-(3-((methylthio)methyl)phenyl)-2-oxo-1,2-dihydropyridin-4-yl)-2-(1-(trifluoromethyl)-1H-pyrazol-4-yl)-1,6-dihydro-7H-pyrrolo[2,3-c]pyridin-7-one]
- IC50 (BRD4 BD2): < 0.01 µM
- Fold Selectivity BRD4 BD1/BD2 (BRD4 BD2): xxxx (Fold >1000)
- IC50 (BRD4 BD1): > 1 µM

SMILES: Cn1cc(-c2cc(=O)n(CCN3CCOCC3)cc2-c2ccccc2)c2cc(-c3cnn(C(F)(F)F)c3)[nH]c2c1=O [Example 62, 6-methyl-4-(1-(2-morpholinoethyl)-2-oxo-5-phenyl-1,2-dihydropyridin-4-yl)-2-(1-(trifluoromethyl)-1H-pyrazol-4-yl)-1,6-dihydro-7H-pyrrolo[2,3-c]pyridin-7-one]
- IC50 (BRD4 BD2): < 0.01 µM
- Fold Selectivity BRD4 BD1/BD2 (BRD4 BD2): xxxx (Fold >1000)
- IC50 (BRD4 BD1): > 1 µM

SMILES: CCCCCCCCc1ccc(CCC(N)(CO)CO)cc1 [FTY720, reference compound]
- Incidence of EAE (%) [1]: 16.7*** %
- Mean Day of Onset (SEM) [1]: 18.5 (0.5) Day
- Mean End Score (SEM) [1]: 0.21 (0.14)***
- Mean Maximum Score (SEM) [1]: 0.33 (0.23)***
- Median Day of Onset [1]: >28.0 days
- Mean EAE score ([1]; Day 7): 0.00
- Mean EAE score ([1]; Day 8): 0.00
- Mean EAE score ([1]; Day 9): 0.00
- Mean EAE score ([1]; Day 10): 0.00
- Mean EAE score ([1]; Day 11): 0.00
- Mean EAE score ([1]; Day 12): 0.00
- Mean EAE score ([1]; Day 13): 0.00
- Mean EAE score ([1]; Day 14): 0.00
- Mean EAE score ([1]; Day 15): 0.00
- Mean EAE score ([1]; Day 16): 0.00
- Mean EAE score ([1]; Day 17): 0.00
- Mean EAE score ([1]; Day 18): 0.13
- Mean EAE score ([1]; Day 19): 0.25
- Mean EAE score ([1]; Day 20): 0.25
- Mean EAE score ([1]; Day 21): 0.29
- Mean EAE score ([1]; Day 22): 0.33
- Mean EAE score ([1]; Day 23): 0.29
- Mean EAE score ([1]; Day 24): 0.29
- Mean EAE score ([1]; Day 25): 0.21
- Mean EAE score ([1]; Day 26): 0.21
- Mean EAE score ([1]; Day 27): 0.21
- Mean EAE score ([1]; Day 28): 0.21
- Mean Body Weight (EAE study: body weight; Day 0): 20.3 g
- Mean Body Weight (% of Day −1) (EAE study: body weight; Day 0): 100.7 % of Day −1
- Mean Body Weight (EAE study: body weight; Day 2): 19.9 g
- Mean Body Weight (% of Day −1) (EAE study: body weight; Day 2): 98.4 % of Day −1
- Mean Body Weight (EAE study: body weight; Day 5): 21.2 g
- Mean Body Weight (% of Day −1) (EAE study: body weight; Day 5): 105.1 % of Day −1
- Mean Body Weight (EAE study: body weight; Day 7): 21.3 g
- Mean Body Weight (% of Day −1) (EAE study: body weight; Day 7): 105.4 % of Day −1
- Mean Body Weight (EAE study: body weight; Day 9): 21.8 g
- Mean Body Weight (% of Day −1) (EAE study: body weight; Day 9): 108.2 % of Day −1
- Mean Body Weight (EAE study: body weight; Day 12): 21.5 g
- Mean Body Weight (% of Day −1) (EAE study: body weight; Day 12): 106.5 % of Day −1
- Mean Body Weight (EAE study: body weight; Day 14): 21.6 g
- Mean Body Weight (% of Day −1) (EAE study: body weight; Day 14): 107.2 % of Day −1
- Mean Body Weight (EAE study: body weight; Day 16): 21.6 g
- Mean Body Weight (% of Day −1) (EAE study: body weight; Day 16): 107.0 % of Day −1
- Mean Body Weight (EAE study: body weight; Day 19): 21.6 g
- Mean Body Weight (% of Day −1) (EAE study: body weight; Day 19): 106.9 % of Day −1
- Mean Body Weight (EAE study: body weight; Day 21): 21.7 g
- Mean Body Weight (% of Day −1) (EAE study: body weight; Day 21): 107.5 % of Day −1
- Mean Body Weight (EAE study: body weight; Day 23): 22.0 g
- Mean Body Weight (% of Day −1) (EAE study: body weight; Day 23): 109.3 % of Day −1
- Mean Body Weight (EAE study: body weight; Day 27): 21.9 g
- Mean Body Weight (% of Day −1) (EAE study: body weight; Day 27): 108.3 % of Day −1
- Mean Body Weight (EAE study: body weight; Day 28): 22.0 g
- Mean Body Weight (% of Day −1) (EAE study: body weight; Day 28): 108.9 % of Day −1
- Mean Body Weight (EAE study: body weight; Day −1): 20.2 g
- Mean Body Weight (% of Day −1) (EAE study: body weight; Day −1): 100.0 % of Day −1
- Mean Body Weight Change (% of Day −1) (EAE study: body weight; FTY720, mean end body weight): 108.9*** % of Day −1

SMILES: CN(C)CCOc1cccc(-c2cn(C)c(=O)cc2-c2cn(C)c(=O)c3[nH]c(-c4cnn(C(F)(F)F)c4)cc23)c1 [Example 3, 4-(5-(3-(2-(dimethylamino)ethoxy)phenyl)-1-methyl-2-oxo-1,2-dihydropyridin-4-yl)-6-methyl-2-(1-(trifluoromethyl)-1H-pyrazol-4-yl)-1,6-dihydro-7H-pyrrolo[2,3-c]pyridin-7-one]
- IC50 (BRD4 BD2): 0.05 to 0.2 µM
- Fold Selectivity BRD4 BD1/BD2 (BRD4 BD2): xx (Fold >50 and ≤200)
- IC50 (BRD4 BD1): > 1 µM

SMILES: CN(C)CCn1cc(-c2ccccc2)c(-c2cn(C)c(=O)c3[nH]c(-c4cnn(C(F)(F)F)c4)cc23)cc1=O.O=CO [Example 61, 4-(1-(2-(dimethylamino)ethyl)-2-oxo-5-phenyl-1,2-dihydropyridin-4-yl)-6-methyl-2-(1-(trifluoromethyl)-1H-pyrazol-4-yl)-1,6-dihydro-7H-pyrrolo[2,3-c]pyridin-7-one formate]
- IC50 (BRD4 BD2): < 0.01 µM
- Fold Selectivity BRD4 BD1/BD2 (BRD4 BD2): x (Fold >2 and ≤50)
- IC50 (BRD4 BD1): 0.05 to 0.5 µM

SMILES: CSCc1ccc(-c2cn(C)c(=O)cc2-c2cn(C)c(=O)c3[nH]c(-c4cnn(C(F)(F)F)c4)cc23)cc1 [Example 24, 6-methyl-4-(1-methyl-5-(4-((methylthio)methyl)phenyl)-2-oxo-1,2-dihydropyridin-4-yl)-2-(1-(trifluoromethyl)-1H-pyrazol-4-yl)-1,6-dihydro-7H-pyrrolo[2,3-c]pyridin-7-one]
- IC50 (BRD4 BD2): < 0.01 µM
- Fold Selectivity BRD4 BD1/BD2 (BRD4 BD2): xxxx (Fold >1000)
- IC50 (BRD4 BD1): > 1 µM

More lines, now with the values ahead:

- IC50 (BRD4 BD2): 0.05 to 0.2 µM
- Fold Selectivity BRD4 BD1/BD2 (BRD4 BD2): xx (Fold >50 and ≤200)
- IC50 (BRD4 BD1): > 1 µM
SMILES: Cn1cc(-c2ccccc2)c(-c2cn(C)c(=O)c3[nH]c(-c4c(F)cccc4F)cc23)cc1=O [Example 82]

- IC50 (BRD4 BD2): < 0.01 µM
- Fold Selectivity BRD4 BD1/BD2 (BRD4 BD2): xxxx (Fold >1000)
- IC50 (BRD4 BD1): > 1 µM
SMILES: Cn1cc(-c2cccc3c2COC3)c(-c2cn(C)c(=O)c3[nH]c(-c4ccc(F)cc4F)cc23)cc1=O [Example 6, 2-(2,4-difluorophenyl)-4-(5-(1,3-dihydroisobenzofuran-4-yl)-1-methyl-2-oxo-1,2-dihydropyridin-4-yl)-6-methyl-1,6-dihydro-7H-pyrrolo[2,3-c]pyridin-7-one]

- IC50 (BRD4 BD2): 0.01 to 0.05 µM
- Fold Selectivity BRD4 BD1/BD2 (BRD4 BD2): xxx (Fold >200 and ≤1000)
- IC50 (BRD4 BD1): > 1 µM
SMILES: Cn1cc(-c2ccccc2)c(-c2cn(C)c(=O)c3[nH]c(-c4cnn(C(F)(F)F)c4)c(Cl)c23)cc1=O [Example 10, 3-chloro-6-methyl-4-(1-methyl-2-oxo-5-phenyl-1,2-dihydropyridin-4-yl)-2-(1-(trifluoromethyl)-1H-pyrazol-4-yl)-1,6-dihydro-7H-pyrrolo[2,3-c]pyridin-7-one]

- IC50 (BRD4 BD2): 0.01 to 0.05 µM
- Fold Selectivity BRD4 BD1/BD2 (BRD4 BD2): xx (Fold >50 and ≤200)
- IC50 (BRD4 BD1): > 1 µM
SMILES: Cc1nn(C2COC2)cc1-c1cc2c(-c3cc(=O)n(C)cc3-c3ccccc3)cn(C)c(=O)c2[nH]1 [Example 91]

- IC50 (BRD4 BD2): 0.01 to 0.05 µM
- Fold Selectivity BRD4 BD1/BD2 (BRD4 BD2): xxx (Fold >200 and ≤1000)
- IC50 (BRD4 BD1): > 1 µM
SMILES: CC(C)n1cc(-c2[nH]c3c(=O)n(C)cc(-c4cc(=O)n(C)cc4-c4ccccc4)c3c2F)cn1 [Example 65, 4-[3-fluoro-2-(1-isopropylpyrazol-4-yl)-6-methyl-7-oxo-1H-pyrrolo[2,3-c]pyridin-4-yl]-1-methyl-5-phenylpyridin-2-one]

- IC50 (BRD4 BD2): < 0.01 µM
- Fold Selectivity BRD4 BD1/BD2 (BRD4 BD2): xxxx (Fold >1000)
- IC50 (BRD4 BD1): > 1 µM
SMILES: CSCCn1cc(-c2ccccc2)c(-c2cn(C)c(=O)c3[nH]c(-c4cnn(C(F)(F)F)c4)cc23)cc1=O [Example 23, 6-methyl-4-(1-(2-(methylthio)ethyl)-2-oxo-5-phenyl-1,2-dihydropyridin-4-yl)-2-(1-(trifluoromethyl)-1H-pyrazol-4-yl)-1,6-dihydro-7H-pyrrolo[2,3-c]pyridin-7-one]
